Measured values: BindingDB's records for doi:10.1021/jm801065q (Novartis Institutes For Biomedical Research, 2008)

Key:
[1] = Activity at CXCR4 in human Jurkat T cells assessed as inhibition of CXCL12-induced cell migration
[2] = Activity at CXCR4 in rat IR983F cells assessed as inhibition of CXCL12-induced cell migration

IC50 [1]: 58 nM
IC50 [2]: 29 nM
SMILES: C1=C(CS/C(=N\C2CCCCC2)NC2CCCCC2)N2CCN=C2S1 [1,3-dicyclohexyl-2-((5,6-dihydroimidazo[2,1-b]thiazol-3-yl)methyl)isothiourea]
